Laboratory results: ChEMBL document CHEMBL1909046, “DrugMatrix in vitro pharmacology data”

How the values were obtained:
[1] = DRUGMATRIX: Calcium Channel Type L, Benzothiazepine radioligand binding (ligand: [3H] Diltiazem); assay type: cell membranes, Rattus norvegicus, Wistar, Brain, Membrane; details: Not Active = under 50% inhibition at 10 µM
[2] = molecular target: 5-hydroxytryptamine receptor 4 (Cavia porcellus, UniProt O70528); assay type: cell membranes, Dunkin-Hartley, Striatum, Membrane; also: in other assays of this panel Not Active means under 50% inhibition at 10 µM
[3] = molecular target: Vascular endothelial growth factor receptor 1 (Homo sapiens, UniProt P17948); assay type: cell-based; details: huvec; also: in other assays of this panel Not Active means under 50% inhibition at 10 µM
[4] = molecular target: T1, C-C chemokine receptor type 4 (Homo sapiens, UniProt P51679); assay type: cell membranes, Membrane; details: chem-1; also: in other assays of this panel Not Active means under 50% inhibition at 10 µM
T1 sequence (P51679 whole entry): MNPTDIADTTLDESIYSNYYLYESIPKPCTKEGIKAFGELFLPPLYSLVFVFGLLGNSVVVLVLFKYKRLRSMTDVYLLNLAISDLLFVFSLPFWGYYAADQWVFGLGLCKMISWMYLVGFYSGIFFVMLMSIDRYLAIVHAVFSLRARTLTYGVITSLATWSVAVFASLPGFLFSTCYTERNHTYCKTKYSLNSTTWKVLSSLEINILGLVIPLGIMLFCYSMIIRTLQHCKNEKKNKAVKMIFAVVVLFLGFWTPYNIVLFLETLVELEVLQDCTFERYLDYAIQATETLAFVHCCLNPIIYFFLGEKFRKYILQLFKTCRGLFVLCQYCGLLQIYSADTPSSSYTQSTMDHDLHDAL

[5] = DRUGMATRIX: Glutamate, NMDA, Phencyclidine radioligand binding (ligand: [3H] TCP); assay type: cell membranes, Rattus norvegicus, Wistar, Cerebral cortex, Membrane; details: Not Active = under 50% inhibition at 10 µM
[6] = molecular target: Nitric oxide synthase 1 (Rattus norvegicus, UniProt P29476); assay type: tissue-based, Cerebellum; also: in other assays of this panel Not Active means under 50% inhibition at 10 µM
[7] = DRUGMATRIX: Phosphodiesterase PDE3 enzyme inhibition (substrate: [3H]cAMP + cAMP); assay type: tissue-based, Homo sapiens; details: platelet; Not Active = under 50% inhibition at 10 µM

5-hydroxytryptamine receptor 4, sequence (O70528 whole entry): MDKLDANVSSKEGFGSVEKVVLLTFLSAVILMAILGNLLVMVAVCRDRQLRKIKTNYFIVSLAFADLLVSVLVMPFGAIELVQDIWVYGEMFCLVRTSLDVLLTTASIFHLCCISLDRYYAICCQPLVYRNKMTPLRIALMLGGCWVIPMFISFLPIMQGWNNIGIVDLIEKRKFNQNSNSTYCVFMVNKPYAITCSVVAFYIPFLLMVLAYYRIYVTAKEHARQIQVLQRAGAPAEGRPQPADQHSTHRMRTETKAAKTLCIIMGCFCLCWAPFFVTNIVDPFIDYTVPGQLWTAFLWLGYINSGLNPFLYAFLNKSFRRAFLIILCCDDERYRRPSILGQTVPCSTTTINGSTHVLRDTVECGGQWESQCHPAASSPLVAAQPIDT
Nitric oxide synthase 1, sequence (P29476 whole entry): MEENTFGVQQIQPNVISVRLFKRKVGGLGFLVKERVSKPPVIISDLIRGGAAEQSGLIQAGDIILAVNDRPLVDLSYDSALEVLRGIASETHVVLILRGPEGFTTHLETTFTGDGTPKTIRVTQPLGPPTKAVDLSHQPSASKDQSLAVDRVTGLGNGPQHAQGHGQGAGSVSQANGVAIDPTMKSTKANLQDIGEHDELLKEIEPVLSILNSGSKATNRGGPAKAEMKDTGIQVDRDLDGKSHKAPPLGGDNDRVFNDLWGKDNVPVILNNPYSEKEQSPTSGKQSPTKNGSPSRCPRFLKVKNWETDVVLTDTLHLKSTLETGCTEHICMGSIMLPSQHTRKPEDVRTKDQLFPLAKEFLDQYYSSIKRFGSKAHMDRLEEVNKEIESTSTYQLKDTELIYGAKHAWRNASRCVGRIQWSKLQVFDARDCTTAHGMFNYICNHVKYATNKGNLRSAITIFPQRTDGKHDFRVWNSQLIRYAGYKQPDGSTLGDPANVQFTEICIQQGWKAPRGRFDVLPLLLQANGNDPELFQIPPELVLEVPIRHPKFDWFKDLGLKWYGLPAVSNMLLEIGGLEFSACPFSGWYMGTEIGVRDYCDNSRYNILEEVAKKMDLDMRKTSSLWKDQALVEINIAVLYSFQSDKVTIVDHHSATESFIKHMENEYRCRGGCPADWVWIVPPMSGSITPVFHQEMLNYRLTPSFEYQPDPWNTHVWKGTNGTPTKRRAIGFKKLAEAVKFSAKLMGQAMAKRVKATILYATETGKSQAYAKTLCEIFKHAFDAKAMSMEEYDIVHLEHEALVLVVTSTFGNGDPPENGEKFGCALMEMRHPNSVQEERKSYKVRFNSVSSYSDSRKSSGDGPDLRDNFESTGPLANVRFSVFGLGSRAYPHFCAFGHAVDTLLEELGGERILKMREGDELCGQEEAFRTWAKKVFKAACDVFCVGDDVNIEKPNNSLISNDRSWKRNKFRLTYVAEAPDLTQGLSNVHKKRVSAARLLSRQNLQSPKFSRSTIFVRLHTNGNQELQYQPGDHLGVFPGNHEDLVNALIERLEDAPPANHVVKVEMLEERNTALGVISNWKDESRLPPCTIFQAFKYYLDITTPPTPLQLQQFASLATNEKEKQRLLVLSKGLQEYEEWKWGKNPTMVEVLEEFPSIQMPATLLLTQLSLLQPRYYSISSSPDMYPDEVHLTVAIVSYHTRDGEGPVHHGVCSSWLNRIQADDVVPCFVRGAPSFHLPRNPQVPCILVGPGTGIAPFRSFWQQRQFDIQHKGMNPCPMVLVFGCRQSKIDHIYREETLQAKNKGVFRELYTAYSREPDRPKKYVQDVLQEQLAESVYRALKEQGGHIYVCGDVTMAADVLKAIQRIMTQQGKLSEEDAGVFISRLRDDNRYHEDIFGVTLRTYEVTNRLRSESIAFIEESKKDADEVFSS
Vascular endothelial growth factor receptor 1, sequence (P17948 whole entry): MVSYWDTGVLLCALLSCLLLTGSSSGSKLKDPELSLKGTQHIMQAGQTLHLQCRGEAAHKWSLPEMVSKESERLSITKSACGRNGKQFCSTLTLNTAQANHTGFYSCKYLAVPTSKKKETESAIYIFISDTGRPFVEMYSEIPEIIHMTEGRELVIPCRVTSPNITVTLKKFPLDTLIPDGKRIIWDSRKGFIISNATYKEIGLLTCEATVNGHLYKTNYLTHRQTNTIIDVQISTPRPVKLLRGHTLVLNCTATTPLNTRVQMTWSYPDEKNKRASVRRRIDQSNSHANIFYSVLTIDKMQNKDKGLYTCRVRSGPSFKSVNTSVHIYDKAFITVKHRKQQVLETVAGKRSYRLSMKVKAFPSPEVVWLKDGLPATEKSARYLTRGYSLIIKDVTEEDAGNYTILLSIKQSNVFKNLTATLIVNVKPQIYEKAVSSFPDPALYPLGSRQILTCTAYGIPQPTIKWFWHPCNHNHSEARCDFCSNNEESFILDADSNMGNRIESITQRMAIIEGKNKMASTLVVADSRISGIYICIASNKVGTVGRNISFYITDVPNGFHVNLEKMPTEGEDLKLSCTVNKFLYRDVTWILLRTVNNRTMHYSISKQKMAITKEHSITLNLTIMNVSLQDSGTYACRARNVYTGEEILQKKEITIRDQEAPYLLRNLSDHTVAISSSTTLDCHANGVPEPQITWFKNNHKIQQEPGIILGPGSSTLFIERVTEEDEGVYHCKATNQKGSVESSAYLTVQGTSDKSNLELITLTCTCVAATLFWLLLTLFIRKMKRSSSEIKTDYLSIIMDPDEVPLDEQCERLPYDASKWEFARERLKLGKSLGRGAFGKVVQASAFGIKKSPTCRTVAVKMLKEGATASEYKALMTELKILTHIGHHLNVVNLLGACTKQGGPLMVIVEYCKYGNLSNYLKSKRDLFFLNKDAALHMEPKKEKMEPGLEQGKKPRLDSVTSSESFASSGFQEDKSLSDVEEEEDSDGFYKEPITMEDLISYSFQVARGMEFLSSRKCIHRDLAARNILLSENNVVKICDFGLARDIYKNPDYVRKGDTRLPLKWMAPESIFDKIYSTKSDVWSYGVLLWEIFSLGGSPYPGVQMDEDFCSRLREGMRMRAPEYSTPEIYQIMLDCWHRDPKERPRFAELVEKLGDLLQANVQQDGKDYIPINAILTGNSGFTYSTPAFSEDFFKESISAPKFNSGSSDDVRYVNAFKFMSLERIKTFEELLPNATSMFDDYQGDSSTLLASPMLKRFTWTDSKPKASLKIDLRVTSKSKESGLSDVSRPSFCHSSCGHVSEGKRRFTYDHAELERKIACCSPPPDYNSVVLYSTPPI

Compound | IC50 [1] | Ki [1] | IC50 [2] | IC50 [3] | IC50 [4] | IC50 [5] | Ki [5] | IC50 [6] | IC50 [7] | Ki [7] | IC50 ([1]; read-out: IC50) [µM] | Ki ([1]; read-out: Ki) [µM] | Ki [2] | Ki [3] | Ki [4] | Ki [6]
O=C(C1CCCCC1)N1CC(=O)N2CCc3ccccc3C2C1 (centres undefined) [PRAZIQUANTEL] | Not Active | Not Active | Not Active | Not Active | Not Active | Not Active | Not Active | Not Active | Not Active | Not Active |  |  |  |  |  | 
CCN(CC)CCOC(=O)c1ccc(N)cc1 [PROCAINE] | Not Active | Not Active | Not Active | Not Active | Not Active | Not Active | Not Active | Not Active | Not Active | Not Active |  |  |  |  |  | 
CCCN(CCC)C(=O)C(CCC(=O)O)NC(=O)c1ccccc1 (centres undefined) [PROGLUMIDE] | Not Active | Not Active | Not Active | Not Active | Not Active | Not Active | Not Active | Not Active | Not Active | Not Active |  |  |  |  |  | 
NC(=O)c1cnccn1 [PYRAZINAMIDE] | Not Active | Not Active | Not Active | Not Active | Not Active | Not Active | Not Active | Not Active | Not Active | Not Active |  |  |  |  |  | 
OC(CCN1CCCCC1)(c1ccccc1)C1CCCCC1 (centres undefined) [TRIHEXYPHENIDYL] |  |  | Not Active | Not Active | Not Active | Not Active | Not Active | Not Active | Not Active | Not Active | 4.81 | 4.28 |  |  |  | 
Cc1cc2cc3c(C)cc(=O)oc3c(C)c2o1 [TRIOXSALEN] | Not Active | Not Active | Not Active | Not Active | Not Active | Not Active | Not Active | Not Active | Not Active | Not Active |  |  |  |  |  | 
CCCC(CCC)C(=O)O [VALPROIC ACID] | Not Active | Not Active | Not Active | Not Active | Not Active | Not Active | Not Active | Not Active | Not Active | Not Active |  |  |  |  |  | 
CCC1=C[C@@H]2CN(C1)Cc1c([nH]c3ccccc13)[C@@](C(=O)OC)(c1cc3c(cc1OC)N(C)[C@H]1[C@@](O)(C(=O)OC)[C@H](OC(C)=O)[C@]4(CC)C=CCN5CC[C@]31[C@@H]54)C2 [VINORELBINE] | Not Active | Not Active | Not Active | Not Active | Not Active | Not Active | Not Active | Not Active | Not Active | Not Active |  |  |  |  |  | 
CADMIUM DICHLORIDE | Not Active | Not Active | Not Active | Not Active | Not Active | Not Active | Not Active | Not Active | Not Active | Not Active |  |  | Not Active | Not Active | Not Active | Not Active
